Test results: US20230167181A1, “PHARMACEUTICAL COMPOSITIONS AND METHODS OF MANUFACTURE USING THERMALLY CONDUCTIVE EXCIPIENTS” (BOARD OF REGENTS, THE UNIVERSITY OF TEXAS SYSTEM, priority 2020, published 2023)

Assay: Hot stage polarized light microscopy (HSPLM)
Format: physicochemical
Conditions: heat only, 130° C. or 160° C., FIG. 3
Experimental: Hot stage polarized light microscopy (HSPLM) and polarized light microscopy (PLM) were used to determine amorphous nature and visual interactions between excipients when melting. Samples were prepared by lightly spreading physical mixtures of the two compositions onto a glass slide. An Olympus BX60 microscope (Olympus Corp., Center Valley, Pa.) with Insight QE camera (Diagnostic Instruments, Inc., Sterling Heights, Mich.) was used for visual observation. […] Images were captured using Spot Advance Software (Diagnostic Instruments, Inc.).

- dissolving of BI-667 in HPMCAS-HMP when no mixing was applied: not dissolve
SMILES: CS(=O)(=O)c1cc(C2(NC(=O)c3cncc4c3cnn4-c3ccc(F)cc3)CC2)ccn1 [BI-667]
